Measurements from ChEMBL document CHEMBL3045160, “Betuligenol derivative with growth inhibition and antifeedant activity” (2004).

Assays:
Format in all cases: functional
Spilarctia obliqua [1] = assay: Antifeedant activity against fourth-instar larval stage of Spilarctia obliqua reared on artificial diet containing compound assessed as growth inhibition at 4000 ppm after 48 hr; conditions: read-out: GI
Spilarctia obliqua [2] = assay: Antifeedant activity against fourth-instar larval stage of Spilarctia obliqua reared on artificial diet containing compound assessed as feeding deterrence index at 1000 ppm after 24 hr
Spilarctia obliqua [3] = assay: Antifeedant activity against fourth-instar larval stage of Spilarctia obliqua reared on artificial diet containing compound assessed as growth inhibition at 3000 ppm after 48 hr; conditions: read-out: GI
Spilarctia obliqua [4] = assay: Antifeedant activity against fourth-instar larval stage of Spilarctia obliqua reared on artificial diet containing compound assessed as feeding deterrence index at 2000 ppm after 24 hr
Spilarctia obliqua [5] = assay: Antifeedant activity against fourth-instar larval stage of Spilarctia obliqua reared on artificial diet containing compound assessed as growth inhibition at 2000 ppm after 48 hr; conditions: read-out: GI
Spilarctia obliqua [6] = assay: Antifeedant activity against fourth-instar larval stage of Spilarctia obliqua reared on artificial diet containing compound assessed as growth inhibition at 1000 ppm after 48 hr; conditions: read-out: GI
Spilarctia obliqua [7] = assay: Antifeedant activity against fourth-instar larval stage of Spilarctia obliqua reared on artificial diet containing compound assessed as growth inhibition at 5000 ppm after 48 hr; conditions: read-out: GI
Spilarctia obliqua [8] = assay: Antifeedant activity against fourth-instar larval stage of Spilarctia obliqua reared on artificial diet containing compound assessed as feeding deterrence index at 5000 ppm after 24 hr
Spilarctia obliqua [9] = assay: Antifeedant activity against fourth-instar larval stage of Spilarctia obliqua reared on artificial diet containing compound assessed as feeding deterrence index at 4000 ppm after 24 hr
Spilarctia obliqua [10] = assay: Antifeedant activity against fourth-instar larval stage of Spilarctia obliqua reared on artificial diet containing compound assessed as feeding deterrence index at 3000 ppm after 24 hr
Spilarctia obliqua [11] = assay: Antifeedant activity against fourth-instar larval stage of Spilarctia obliqua reared on artificial diet containing compound assessed as growth inhibition […] after 48 hr; conditions: read-out: GI

Structure (SMILES)	inhibition of growth at 4000 ppm (Spilarctia obliqua [1]) [%]	FDI (Spilarctia obliqua [2]) [%]	inhibition of growth at 3000 ppm (Spilarctia obliqua [3]) [%]	FDI (Spilarctia obliqua [4]) [%]	inhibition of growth at 2000 ppm (Spilarctia obliqua [5]) [%]	inhibition of growth at 1000 ppm (Spilarctia obliqua [6]) [%]	inhibition of growth at 5000 ppm (Spilarctia obliqua [7]) [%]	FDI (Spilarctia obliqua [8]) [%]	FDI (Spilarctia obliqua [9]) [%]	FDI (Spilarctia obliqua [10]) [%]	inhibition of growth at 5 ppm (Spilarctia obliqua [11]) [%]
COc1ccc(CC[C@@H](C)N)cc1	100	32	72	40	59	48	128	100	82	64	–
C/C=C(\C)C(=O)O[C@H]1C[C@@H](OC(C)=O)[C@@]2(C(=O)OC)CO[C@H]3[C@@H](O)[C@@](C)([C@]45O[C@@]4(C)[C@@H]4C[C@H]5O[C@@H]5OC=C[C@@]54O)[C@H]4[C@]1(CO[C@]4(O)C(=O)OC)[C@@H]32 [AZADIRACHTIN A]	–	100	–	–	–	–	–	–	–	–	–
O=C(NC(=O)c1c(F)cccc1F)Nc1ccc(Cl)cc1 [DIFLUBENZURON]	–	–	–	–	–	–	–	–	–	–	100
